Patent US20230391796A1, “GLYCOSIDASE INHIBITORS AND USES THEREOF” (UNIVERSIDAD DE SEVILLA (US) -UNIVERSITY OF SEVILLE (US), priority 2020, published 2023)
Structures can show the parent of a compound that is named as a salt.

Experiments:
[1] = molecular target: β-N-acetylglucosaminidase (from jack bean); assay: Inhibition assay against commercial β-N-acetylglucosaminidase (jack bean), p-nitrophenyl N-acetyl-β-D-glucosaminide substrate; format: biochemical; details: pH 5.5, 37° C.; average of three determinations ± s.e.m.; NI = no inhibition detected at 200 μM; read-out: Jack beans Hex
Experimental: (§1) Inhibition Assays Against Commercial β-N-acetylglucosaminidases
(§2) Inhibition constant (Ki) values were determined by spectrophotometrically measuring the residual hydrolytic activities of the glycosidases against p-nitrophenyl N-acetyl-β-D-glucosaminide. […] Each assay was performed in phosphate-citrate buffer and the reactions were initiated by addition of the enzyme to a solution of the substrate in the absence or presence of various inhibitor concentrations. The mixture was incubated for 10-30 min at 37° C. and the reaction was quenched by addition of 1 M Na2CO3. Reaction times were appropriate to obtain 10-20% conversion of the substrate in order to achieve linear rates. The absorbance of the resulting mixture was determined at 405 nm. Approximate values of Ki were determined using a fixed concentration of substrate (around the Km value for the different glycosidases) and various inhibitor concentrations. Full Ki determinations and enzyme inhibition mode were determined from the slope of Lineweaver-Burk plots and double reciprocal analysis using a Microsoft Office Excel 2007 program.

[2] = molecular target: β-N-acetylglucosaminidase (from bovine kidney); assay: Inhibition assay against commercial β-N-acetylglucosaminidase (bovine kidney), p-nitrophenyl N-acetyl-β-D-glucosaminide substrate; format: biochemical; details: pH 5.5, 37° C.; average of three determinations ± s.e.m.; NI = no inhibition detected at 200 μM; read-out: Bovine kidney Hex
Experimental: as §1, §2

[3] = molecular target: β-N-acetylglucosaminidase (from human placenta); assay: Inhibition assay against commercial β-N-acetylglucosaminidase (human placenta), p-nitrophenyl N-acetyl-β-D-glucosaminide substrate; format: biochemical; details: pH 5.5, 37° C.; average of three determinations ± s.e.m.; read-out: Human placenta Hex
Experimental: as §1, §2

hOGA = molecular target: T1, hOGA (Homo sapiens, UniProt O60502); assay: Inhibition assay against hOGA, resorufin N-acetyl-β-D-glucosaminide fluorescence; format: biochemical; details: 0.2 nM hOGA, 25 μM substrate, pH 7.1; Morrison Ki
T1 sequence (O60502 1-916): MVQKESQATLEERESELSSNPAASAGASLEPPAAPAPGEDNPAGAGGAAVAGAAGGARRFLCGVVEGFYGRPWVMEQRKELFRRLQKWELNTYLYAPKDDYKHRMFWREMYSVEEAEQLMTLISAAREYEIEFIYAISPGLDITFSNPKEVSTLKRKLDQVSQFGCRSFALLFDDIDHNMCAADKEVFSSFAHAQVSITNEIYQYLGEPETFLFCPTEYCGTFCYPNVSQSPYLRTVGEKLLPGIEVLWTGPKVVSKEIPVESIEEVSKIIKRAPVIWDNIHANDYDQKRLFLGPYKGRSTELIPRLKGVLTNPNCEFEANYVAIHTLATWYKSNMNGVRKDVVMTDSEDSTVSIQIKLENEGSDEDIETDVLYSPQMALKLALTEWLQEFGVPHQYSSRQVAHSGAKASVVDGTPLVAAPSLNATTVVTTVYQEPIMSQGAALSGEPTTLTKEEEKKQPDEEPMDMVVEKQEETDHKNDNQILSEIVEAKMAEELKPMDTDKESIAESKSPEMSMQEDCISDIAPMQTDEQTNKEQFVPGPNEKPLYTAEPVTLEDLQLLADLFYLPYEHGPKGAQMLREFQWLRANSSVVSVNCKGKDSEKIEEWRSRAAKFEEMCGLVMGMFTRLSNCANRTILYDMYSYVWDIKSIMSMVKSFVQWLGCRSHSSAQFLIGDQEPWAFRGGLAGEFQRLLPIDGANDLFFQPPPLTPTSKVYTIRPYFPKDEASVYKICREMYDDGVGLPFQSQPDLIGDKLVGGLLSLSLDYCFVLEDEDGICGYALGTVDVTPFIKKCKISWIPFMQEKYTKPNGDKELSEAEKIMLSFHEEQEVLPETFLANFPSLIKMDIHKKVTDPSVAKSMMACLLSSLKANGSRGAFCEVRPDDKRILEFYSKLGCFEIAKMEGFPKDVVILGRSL
Experimental: Inhibition Assays Against hOGA
Km=25 μM was measured with these conditions. Inhibition assays were run at 0.2 nM [hOGA] in the same buffer, in the presence or absence of various concentrations of inhibitors and at a fixed substrate concentration of 25 μM and 1% DMSO. First, inhibitor was serially diluted to the desired range of concentrations in 2% DMSO buffer. Next, 50 μL of inhibitor solutions at various concentrations in 2% DMSO Buffer was added to 50 μL of 0.8 nM enzyme and allowed to incubate at 25° C. for 5 minutes. 100 uL of 50 μM and 1% DMSO substrate was then added and reaction mixture was immediately mixed and aliquoted in 45 μL triplicates to a CORNING 384 well black plate. Fluorescence signal was measured continuously for 20 minutes at 37° C. in a BioTek Neo 2 Plate reader set at excitation and emission wavelengths of 572 and 610 nm, respectively. Max reaction rates for all inhibitor concentrations were calculated within Gen5 BioTek reader software. % Activity was subsequently calculated for each inhibitor concentration against the max reaction rate of uninhibited hOGA. GraphPad Prism 2016 was used to approximate the Morrison Ki values for each inhibitor.

[4] = molecular target: T2, Recombinant Human Hexosaminidase A (HexA) (Homo sapiens, UniProt P06865); assay: Inhibition assay against rhHexA, 4-methylumbelliferone-N-acetyl-β-D-glucosaminide fluorescence; format: biochemical; details: IC50 for lysosomal hHexA; NI = no inhibition detected at 200 μM
T2 construct: purchased R&D Systems 6237-GH-020
T2 sequence (P06865 89-529): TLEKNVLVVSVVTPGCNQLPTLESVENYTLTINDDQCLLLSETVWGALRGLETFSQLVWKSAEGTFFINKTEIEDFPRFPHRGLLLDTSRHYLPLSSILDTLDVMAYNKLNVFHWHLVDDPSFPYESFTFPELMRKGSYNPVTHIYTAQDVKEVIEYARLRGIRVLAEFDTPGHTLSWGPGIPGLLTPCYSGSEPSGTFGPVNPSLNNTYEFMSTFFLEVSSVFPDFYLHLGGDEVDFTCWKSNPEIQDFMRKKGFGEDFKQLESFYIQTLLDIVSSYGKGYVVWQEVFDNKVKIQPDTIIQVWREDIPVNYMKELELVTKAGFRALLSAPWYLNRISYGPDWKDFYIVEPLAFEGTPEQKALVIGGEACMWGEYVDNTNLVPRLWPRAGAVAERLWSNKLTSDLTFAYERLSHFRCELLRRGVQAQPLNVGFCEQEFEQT
Experimental: Inhibition Assays Against rhHexA
Human Hexosaminidase A (HexA) enzyme, purchased from R&D Systems (cat# 6237-GH-020), were determined by measuring the fluorescent signal corresponding to the rate of hydrolytic activity against the commercially available artificial substrate, 4-Methylumbelliferone-N-acetyl-β-D-glucosaminide. HexA activity assays were performed in a buffer of 100 mM sodium citrate, 250 NaCl, pH 4.5 and 1.0 nM [HexA], then stopped after 20 minutes with a solution of 1.0 M Tris, pH 9.5 to enhance fluorescent signal. Preliminary experiments have shown that reaction rates are linear for 20 minutes after substrate addition, and that 1.0 M Tris at pH 9.5 is sufficient for stopping activity, as signal is stable after stopping. Inhibition assays were run in the presence or absence of various concentrations of inhibitors and at a fixed substrate concentration of 100 μM and 1% DMSO. First, inhibitor was serially diluted to the desired range of concentrations in 2% DMSO buffer. Next, 25 μL, of inhibitor solutions at various concentrations in 2% DMSO Buffer was added to 25 μL, of 4.0 nM enzyme and allowed to incubate at 25° C. for 5 minutes. 50 μL of 200 μM and 1% DMSO substrate was then added and allowed to react for 20 minutes. 100 μL of stop solution was added to reaction mixture, and immediately mixed and aliquoted in 45 μL triplicates to a CORNING 384 well black plate. Fluorescence signal was measured in a BioTek Neo 2 Plate reader set at excitation and emission wavelengths of 355 and 450 nm, respectively. % Activity was subsequently calculated for each inhibitor concentration against the fluorescence signal of uninhibited HexA. […]

[5] = In vivo pharmacokinetics, plasma and brain concentrations; parameters: species or system C57BL/6 mice; details: 3 mg/kg single dose
Experimental: Mean plasma concentration (ng/mL) of compound 4 in C57BL/6 mice after 3 mg/kg i.v. administration.
Mean brain concentration (ng/mL) of 4 in C57BL/6 mice after 3 mg/kg i.v. administration
Assay for Determination of the in vivo Pharmacokinetics.
The pharmacokinetic profiles of the compounds to be tested were evaluated in vivo in C57BL/6 mice (n=14) following a 3 mg/kg […] dose.

CC(=O)N[C@H]1CN2/C(=N/Cc3ccccc3)SC[C@@H]2[C@@H](O)[C@@H]1O [Compound 4, 2-Acetamido-5-N,6-S-(N′-benzyliminomethylidene)-1,2-dideoxy-6-thionojirimycin Hydrochloride]
Ki [1]: 0.75 ± 0.04 µM | Ki [2]: 0.46 ± 0.03 µM | Ki [3]: 0.42 ± 0.03 µM | Ki (hOGA): 0.00299 µM | IC50 [4]: 0.56 µM | brain concentration, start of the decrease (FIG. 2) ([5]; homogenized brain, initial value): 26 ng/g | plasma concentration, start of the decrease (FIG. 1) ([5]; plasma, initial value): 1100 ng/mL | concentration at 24 h ([5]; C57BL/6, mouse, intravenous, homogenized brain, 24 h, read-out: brain concentration after 24 h (FIG. 2)): 7.5 ng/g | concentration at 12 h ([5]; C57BL/6, mouse, intravenous, plasma, 12 h, read-out: plasma concentration after 12 h (FIG. 1)): 0.78 ng/mL
